Assay results: patent US20240185945A1, “SYSTEMS AND METHODS FOR MODELING AND DISPLAYING SWEETENER SYNERGY” (WM. WRIGLEY JR. COMPANY, priority 2022, published 2024)

Target: T1, sweet taste receptor (Homo sapiens, UniProt Q7RTX0+Q8TE23)
T1 sequence (Q8TE23 20-839): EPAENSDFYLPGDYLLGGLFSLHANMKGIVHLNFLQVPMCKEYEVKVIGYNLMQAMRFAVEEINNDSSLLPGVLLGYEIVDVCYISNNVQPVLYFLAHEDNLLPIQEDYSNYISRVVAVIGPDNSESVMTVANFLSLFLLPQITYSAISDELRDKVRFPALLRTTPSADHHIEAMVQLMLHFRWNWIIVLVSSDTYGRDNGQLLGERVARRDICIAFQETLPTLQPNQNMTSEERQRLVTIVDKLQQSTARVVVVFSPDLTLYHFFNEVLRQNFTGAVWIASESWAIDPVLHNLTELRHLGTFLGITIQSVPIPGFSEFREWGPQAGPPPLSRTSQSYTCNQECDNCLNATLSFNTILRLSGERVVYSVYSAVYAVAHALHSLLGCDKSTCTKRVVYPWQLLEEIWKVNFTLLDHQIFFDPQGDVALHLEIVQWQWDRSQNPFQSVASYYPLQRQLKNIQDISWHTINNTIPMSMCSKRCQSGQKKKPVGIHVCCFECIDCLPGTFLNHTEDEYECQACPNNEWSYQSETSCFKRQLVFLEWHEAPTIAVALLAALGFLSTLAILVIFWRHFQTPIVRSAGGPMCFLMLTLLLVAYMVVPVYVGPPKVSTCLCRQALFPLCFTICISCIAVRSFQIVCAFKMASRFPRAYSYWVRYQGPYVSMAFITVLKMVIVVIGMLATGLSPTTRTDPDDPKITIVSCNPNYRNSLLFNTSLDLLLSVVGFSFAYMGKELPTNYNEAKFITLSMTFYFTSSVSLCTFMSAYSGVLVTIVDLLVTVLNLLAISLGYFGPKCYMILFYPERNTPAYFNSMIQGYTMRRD
T1 sequence (Q7RTX0 21-852): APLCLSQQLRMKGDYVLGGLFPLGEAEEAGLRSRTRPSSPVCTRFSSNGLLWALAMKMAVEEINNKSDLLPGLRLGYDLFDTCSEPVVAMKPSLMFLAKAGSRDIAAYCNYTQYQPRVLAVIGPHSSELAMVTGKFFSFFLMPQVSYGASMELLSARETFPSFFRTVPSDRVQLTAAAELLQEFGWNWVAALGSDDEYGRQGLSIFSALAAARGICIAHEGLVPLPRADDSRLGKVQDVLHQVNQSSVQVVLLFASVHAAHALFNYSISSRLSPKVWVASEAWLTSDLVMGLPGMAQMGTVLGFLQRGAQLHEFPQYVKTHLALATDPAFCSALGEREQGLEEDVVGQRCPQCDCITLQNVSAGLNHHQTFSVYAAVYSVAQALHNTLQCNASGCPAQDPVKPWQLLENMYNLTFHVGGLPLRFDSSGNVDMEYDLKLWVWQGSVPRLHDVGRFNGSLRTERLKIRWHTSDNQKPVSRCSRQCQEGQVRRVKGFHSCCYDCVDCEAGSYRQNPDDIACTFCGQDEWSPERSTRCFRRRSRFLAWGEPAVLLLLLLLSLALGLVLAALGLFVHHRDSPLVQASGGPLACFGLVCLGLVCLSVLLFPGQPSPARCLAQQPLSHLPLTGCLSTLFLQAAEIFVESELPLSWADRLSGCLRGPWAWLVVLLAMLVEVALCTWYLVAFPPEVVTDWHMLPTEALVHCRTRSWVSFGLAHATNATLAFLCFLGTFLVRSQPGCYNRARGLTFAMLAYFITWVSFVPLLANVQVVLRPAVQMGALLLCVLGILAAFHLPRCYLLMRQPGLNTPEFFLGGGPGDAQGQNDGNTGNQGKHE
Experiment: Synergy effects (sweet taste receptor signal increase) in binary compound mixtures
Format: cell-based
Conditions: calculated as L(X&Y)/(L(X)+L(Y)); for Synergy effect observed in binary compound mixture with Aspartame: partner Aspartame; for Synergy effect observed in binary compound mixture with Reb A: partner Reb A; for Synergy effect observed in binary compound mixture with NHDC: partner NHDC; for Synergy effect observed in binary compound mixture with Thaumatin: partner Thaumatin; for Synergy effect observed in binary compound mixture with sucralose: partner sucralose; for Synergy effect observed in binary compound mixture with sucrose: partner sucrose
Description: The present example describes sweet taste receptor signal increases calculated for the following sweeteners: aspartame, sucrose, sucralose, rebaudioside A, rebaudioside D, thaumatin, NHDC, and S819 are present in various combinations in a binary mixture as shown in Table 1.
Synergy between binary mixtures of the sweeteners was calculated as following: L(X&Y)/(L(X)+L(Y)).

| Synergy effect observed in binary compound mixture with Aspartame | Synergy effect observed in binary compound mixture with Reb A | Synergy effect observed in binary compound mixture with Thaumatin | Compound | Synergy effect observed in binary compound mixture with NHDC | Synergy effect observed in binary compound mixture with sucralose | Synergy effect observed in binary compound mixture with sucrose |
| --- | --- | --- | --- | --- | --- | --- |
| 0.5 | 0.4 | – | Thaumatin | – | – | – |
| – | 0.25 | 0.4 | CC(C)Oc1ccc(NC(=S)NCc2ccc[nH]2)cc1 [S819, 1-((1H-pyrrol-2-yl)methyl)-3-(4-isopropoxyphenyl)thiourea] | 0.4 | – | – |
| – | – | – | C=C1C[C@@]23CC[C@H]4[C@@](C)(CCC[C@@]4(C)C(=O)O[C@@H]4O[C@H](CO)[C@@H](O)[C@H](O)[C@H]4O[C@@H]4O[C@H](CO)[C@@H](O)[C@H](O)[C@H]4O)[C@@H]2CC[C@]1(O[C@@H]1O[C@H](CO)[C@@H](O)[C@H](O[C@@H]2O[C@H](CO)[C@@H](O)[C@H](O)[C@H]2O)[C@H]1O[C@@H]1O[C@H](CO)[C@@H](O)[C@H](O)[C@H]1O)C3 [Reb D, Rebaudioside D] | – | 0.3 | 0.25 |
| 0.5 | – | 0.06 | COc1ccc(CCC(=O)c2c(O)cc(O[C@@H]3O[C@H](CO)[C@@H](O)[C@H](O)[C@H]3O[C@@H]3O[C@@H](C)[C@H](O)[C@@H](O)[C@H]3O)cc2O)cc1O [NHDC] | – | – | – |
| – | – | – | C=C1C[C@@]23CC[C@H]4[C@@](C)(CCC[C@@]4(C)C(=O)O[C@@H]4O[C@H](CO)[C@@H](O)[C@H](O)[C@H]4O)[C@@H]2CC[C@]1(O[C@@H]1O[C@H](CO)[C@@H](O)[C@H](O[C@@H]2O[C@H](CO)[C@@H](O)[C@H](O)[C@H]2O)[C@H]1O[C@@H]1O[C@H](CO)[C@@H](O)[C@H](O)[C@H]1O)C3 [Reb A, Rebaudioside A] | 0.25 | 0.3 | 0.5 |
